Test results: US20110053919A1, “Active Compound Combinations Having Insecticidal and Acaricidal Properties” (BAYER CROPSCIENE AG, priority 2006, published 2011)

How the values were obtained:
Format in all cases: in vivo
[1] = test system: larvae of the mustard beetle (Phaedon cochleariae); experiment: Phaedon cochleariae larvae test (sprayed cabbage leaves); conditions: 100 g/ha, single active compound
Excerpt: (§1) The expected action for a given combination of two active compounds can be calculated as follows, according to S. R. Colby, Weeds 15 (1967), 20-22:
(§2) • X is the kill rate, expressed as a percentage of the untreated control, when employing active compound A at an application rate of m g/ha or in a concentration of m ppm, • Y is the kill rate, expressed as a percentage of the untreated control, when employing active compound B at an application rate of n g/ha or in a concentration of n ppm and • E is the kill rate, expressed as a percentage of the untreated control, when employing active compounds A and B at application rates of m and n g/ha or in a concentration of m and n ppm, then
(§3) If the actual kill rate exceeds the calculated value, the kill of the combination is superadditive, i.e. a synergistic effect is present. In this case, the actually observed kill rate must exceed the value calculated using the above formula for the expected kill rate (E).
Phaedon cochleariae Larvae Test
(§4) Solvents: 78 parts by weight of acetone • • 1.5 parts by weight of dimethylformamide Emulsifier: 0.5 part by weight of alkylaryl polyglycol ether
(§5) To produce a suitable preparation of active compound, 1 part by weight of active compound is mixed with the stated amounts of solvents and emulsifier, and the concentrate is diluted with emulsifier-containing water to the desired concentration.
Cabbage leaves (Brassica oleracea) are treated by spraying with the active compound preparation of the desired concentration and are populated with larvae of the mustard beetle (Phaedon cochleariae) while the leaves are still moist.
After the desired period of time, the kill in % is determined. 100% means that all beetle larvae have been killed; 0% means that none of the beetle larvae have been killed. The kill rates determined are entered into Colby's formula.

[2] = test system: green peach aphid (Myzus persicae); experiment: Myzus persicae test (spray treatment of infested cabbage leaves); conditions: single active compound
Excerpt: as §1, §2, §3, §4, §5
Cabbage leaves (Brassica oleracea) which are heavily infested by the green peach aphid (Myzus persicae) are treated by spraying with the active compound preparation of the desired concentration.
After the desired period of time, the kill in % is determined. 100% means that all aphids have been killed; 0% means that none of the aphids have been killed. The kill rates determined are entered into Colby's formula.

[3] = test system: greenhouse red spider mite (Tetranychus urticae); experiment: Tetranychus test, OP-resistant/spray treatment (bean leaf disks); conditions: 0.16 g/ha, single active compound
Excerpt: as §1, §2, §3
OP-Resistant/Spray Treatment
as §4, §5
Disks of bean leaves (Phaseolus vulgaris) which are infested by all stages of the greenhouse red spider mite (Tetranychus urticae) are sprayed with an active compound preparation of the desired concentration.
After the desired period of time, the activity in % is determined. 100% means that all spider mites have been killed; 0% means that none of the spider mites have been killed.

[4] = test system: larvae of the army worm (Spodoptera frugiperda); experiment: Spodoptera frugiperda larvae test (sprayed cabbage leaves); conditions: single active compound
Excerpt: as §1, §2, §3
Spodoptera frugiperda Larvae Test
as §4, §5
Cabbage leaves (Brassica oleracea) are treated by spraying with the active compound preparation of the desired concentration and are populated with larvae of the army worm (Spodoptera frugiperda) while the leaves are still moist.
After the desired period of time, the kill in % is determined. 100% means that all caterpillars have been killed; 0% means that none of the caterpillars have been killed. The kill rates determined are entered into Colby's formula.

Compound: CC(C)N1C(=O)N(c2ccccc2)CS/C1=N\C(C)(C)C [buprofezin]
- Kill in % after 2d [1]: 0%

Compound: CCOC(=O)OC1=C(c2cc(C)ccc2C)C(=O)N[C@]12CC[C@@H](OC)CC2 [compound (II)]
- Kill in % after 2d [1]: 0%
- Kill in % after 1d ([2]; 0.8 g/ha): 0%
- Kill in % after 1d ([2]; 4 g/ha): 0%
- Kill in % after 1d ([2]; 20 g/ha): 0%
- Kill in % after 6d [3]: 10%
- Kill in % after 2d ([4]; 20 g/ha): 17%

Compound: CC1=NNC(=O)N(/N=C/c2cccnc2)C1 [pymetrozine]
- Kill in % after 1d ([2]; 0.8 g/ha): 40%

Compound: CC(COc1ccc(Oc2ccccc2)cc1)Oc1ccccn1 (centres unmarked) [pyriproxifen, pyriproxyfen]
- Kill in % after 1d ([2]; 100 g/ha): 0%
- Kill in % after 2d ([4]; 100 g/ha): 0%

Compound: CCOC(=O)OC1=C(c2cc(C)ccc2C)C(=O)NC12CCC(OC)CC2 (centres unmarked) [compound (IIa)]
- Kill in % after 2d [1]: 0%
- Kill in % after 1d ([2]; 0.8 g/ha): 0%
- Kill in % after 1d ([2]; 4 g/ha): 0%
- Kill in % after 1d ([2]; 20 g/ha): 0%
- Kill in % after 6d [3]: 10%
- Kill in % after 2d ([4]; 20 g/ha): 17%

Compound: N#CCNC(=O)c1cnccc1C(F)(F)F [flonicamid]
- Kill in % after 2d [1]: 0%
- Kill in % after 1d ([2]; 100 g/ha): 30%

Compound: Cc1ccc(/N=C/N(C)/C=N/c2ccc(C)cc2C)c(C)c1 [amitraz]
- Kill in % after 6d [3]: 0%
- Kill in % after 2d ([4]; 20 g/ha): 0%
